The target of experiment [1] is T1, P2Y2 receptor (Rattus norvegicus, UniProt P41232).
T1 construct: Freshly prepared IMCD-enriched fractions were incubated at 37.degree; C. under physiological conditions; from tissue; host or cells: rat kidney inner medulla / inner medullary collecting duct (IMCD) preparations
The following applies: reversible fashion; cited from earlier work.

For the next experiment, the target named is P2Y4 (Homo sapiens, UniProt P51582). To be noted: cDNA library source: Human chromosome X; cited from earlier work.
For a further experiment, the target named is T2, P2Y11 (Homo sapiens, UniProt Q96G91).
T2 sequence (Q96G91 1-374): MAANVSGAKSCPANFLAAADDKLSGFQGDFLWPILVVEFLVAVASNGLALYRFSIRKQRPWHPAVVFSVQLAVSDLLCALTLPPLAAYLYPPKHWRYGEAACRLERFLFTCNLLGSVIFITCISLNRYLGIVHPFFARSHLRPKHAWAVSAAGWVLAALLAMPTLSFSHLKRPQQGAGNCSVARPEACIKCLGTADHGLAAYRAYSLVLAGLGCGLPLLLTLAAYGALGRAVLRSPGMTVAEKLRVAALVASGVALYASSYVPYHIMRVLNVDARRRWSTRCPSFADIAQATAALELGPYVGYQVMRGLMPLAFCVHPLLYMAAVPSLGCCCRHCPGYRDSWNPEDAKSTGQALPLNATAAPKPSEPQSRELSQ
To be noted: cDNA library source: Human placenta; cited from earlier work.

For experiment [2], the target named is P2Y1 (Rattus norvegicus, UniProt P49651). The following applies: cited from earlier work.
Experiment [3] concerns the target P2Y1 (Meleagris gallopavo, UniProt P49652). To be noted: cDNA library source: Turkey brain; cited from earlier work.
The target of experiment [4] is P2Y1 (Gallus gallus, UniProt P34996). The following applies: cDNA library source: Chick brain; cited from earlier work.
The conditions of experiment [5]: in vivo; cited from earlier work.
The nature of experiment [6]: Apyrase treatment day 7 to 14 in lithium-fed and regular diet rats: urine flow. The format is in vivo, Sprague-Dawley rats. The protocol: (§1) It is non-toxic and safe to administer either intravenously or intraperitoneally. Two experiments were conducted. In one experiment Sprague-Dawley rats were divided into two groups (N=4 per group). One group was fed with regular rat chow, while the other was fed regular rat chow to which Lithium Chloride was added to a concentration of 40 mmol/kg wt of the food. Both groups were fed for 14 days without any other treatment. The second experiment was similar to the first one, except that potato apyrase (Sigma Chemical Co) was administered to both regular and lithium-added diet fed rats front day 7 to day 14 at a dose of 100 units/kg body wt. intraperitoneally, three times a day (˜8 hourly intervals). All rats had free access to drinking water. Twenty-four hour urine samples were collected from all rats on day 7 and 14 prior to euthanasia, and analyzed. All rats were euthanized on day 14, and IMCD suspensions were prepared. Basal and ATPγS-stimulated ex vivo PGE2 release by IMCD was determined as per the methods previously established.

In experiment [7] the test system is P2Y2 receptor-stimulated PGE2 release by IMCD. As to the kind of experiment: Apyrase treatment in rats: basal and ATPγS-stimulated ex vivo PGE2 release by IMCD. On the set-up: species or system Sprague-Dawley rats. On the procedure:
as §1

Experiment [8] deals with purinergic-driven PGE2 production by IMCD. To be noted: normal rats chronically infused with dDAVP 20 ng/h; cited from earlier work.
Another experiment concerns V2 receptor. To be noted: chronic dDAVP infusion; cited from earlier work.
For experiment [9], the system named is P2Y2 receptor. To be noted: chronic dDAVP infusion; cited from earlier work.
The mark [10] stands for this setting: control rats fed with regular diet.

Here are results for eight compounds from patent publication US9901624B2, “Methods and compositions for treating nephrogenic diabetes insipidus” (The United States of America as represented by the …, priority 2004, dated 2018).

Entries after “also recorded” stand apart in the source; their conditions may differ. Where two headings read alike, the source gives them in different places.

T1 sequence (P41232 whole entry): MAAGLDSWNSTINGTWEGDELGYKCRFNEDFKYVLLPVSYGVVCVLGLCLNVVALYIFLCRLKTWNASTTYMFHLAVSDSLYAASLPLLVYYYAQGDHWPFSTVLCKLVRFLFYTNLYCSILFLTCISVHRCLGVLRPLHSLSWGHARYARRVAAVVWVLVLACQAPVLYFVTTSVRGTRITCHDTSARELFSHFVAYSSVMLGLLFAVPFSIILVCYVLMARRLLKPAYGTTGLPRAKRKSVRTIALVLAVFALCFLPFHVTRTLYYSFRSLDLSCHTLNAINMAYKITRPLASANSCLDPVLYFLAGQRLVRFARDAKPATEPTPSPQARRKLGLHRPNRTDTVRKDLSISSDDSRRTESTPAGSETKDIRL
P2Y1 (Rattus norvegicus, UniProt P49651), sequence (P49651 whole entry): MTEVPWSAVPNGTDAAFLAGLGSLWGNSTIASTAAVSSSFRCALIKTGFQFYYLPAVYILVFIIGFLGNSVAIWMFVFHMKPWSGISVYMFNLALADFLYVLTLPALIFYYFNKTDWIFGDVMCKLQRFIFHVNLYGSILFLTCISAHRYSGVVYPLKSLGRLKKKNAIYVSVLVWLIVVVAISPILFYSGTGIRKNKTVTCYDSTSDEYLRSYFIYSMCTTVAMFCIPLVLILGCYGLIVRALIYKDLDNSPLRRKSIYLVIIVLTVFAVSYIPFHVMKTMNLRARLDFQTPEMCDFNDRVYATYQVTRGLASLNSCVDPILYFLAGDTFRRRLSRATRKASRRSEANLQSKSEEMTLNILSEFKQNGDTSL
P2Y1 (Gallus gallus, UniProt P34996), sequence (P34996 whole entry): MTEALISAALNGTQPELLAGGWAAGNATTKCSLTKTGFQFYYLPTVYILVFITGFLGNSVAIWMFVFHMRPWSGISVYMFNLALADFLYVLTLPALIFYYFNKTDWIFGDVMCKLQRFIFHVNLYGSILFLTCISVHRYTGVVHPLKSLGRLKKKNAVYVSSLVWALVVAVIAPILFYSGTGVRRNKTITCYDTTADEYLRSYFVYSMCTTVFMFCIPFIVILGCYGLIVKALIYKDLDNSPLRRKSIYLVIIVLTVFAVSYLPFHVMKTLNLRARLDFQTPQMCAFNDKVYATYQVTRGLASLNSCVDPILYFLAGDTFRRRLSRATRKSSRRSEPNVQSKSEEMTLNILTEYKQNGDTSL
P2Y1 (Meleagris gallopavo, UniProt P49652), sequence (P49652 whole entry): as the sequence (P34996 whole entry) above, with T28S counted along it
P2Y4, sequence (P51582 whole entry): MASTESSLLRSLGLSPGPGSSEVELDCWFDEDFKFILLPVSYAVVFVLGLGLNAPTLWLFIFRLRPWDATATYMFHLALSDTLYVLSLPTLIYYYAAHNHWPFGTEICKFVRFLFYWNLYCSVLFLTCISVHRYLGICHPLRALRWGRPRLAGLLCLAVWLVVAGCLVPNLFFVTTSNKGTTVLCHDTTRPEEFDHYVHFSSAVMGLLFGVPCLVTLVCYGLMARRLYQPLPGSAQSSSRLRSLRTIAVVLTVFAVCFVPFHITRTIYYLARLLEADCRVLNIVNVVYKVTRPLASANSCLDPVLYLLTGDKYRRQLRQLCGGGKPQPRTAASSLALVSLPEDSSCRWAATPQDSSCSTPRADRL

Consider `Nc1ncnc2c1ncn2[C@@H]1O[C@H](COP(=O)(O)OP(=O)(O)O)[C@@H](O)[C@H]1O` [ADP], for which the “AVP-stimulated osmotic water permeability (Pf)” value on P2Y2 receptor [1] was “not”.
Turning to `Nc1ncnc2c1ncn2[C@@H]1O[C@H](COP(=O)(O)OP(=O)(O)OP(=O)(O)O)[C@@H](O)[C@H]1O` [ATP], the Agonist activity result at P2Y4 was “UTP > UDP (ATP inactive)”. Also, at P2Y2 receptor [1], the “AVP-stimulated osmotic water permeability (Pf)” value is given as “decreased”.
As for `O=c1ccn([C@@H]2O[C@H](COP(=O)(O)OP(=O)(O)O)[C@@H](O)[C@H]2O)c(=O)[nH]1` [UDP], the Agonist activity result at P2Y11 is “(UTP, UDP inactive)”.
As for `O=c1ccn([C@@H]2O[C@H](COP(=O)(O)OP(=O)(O)OP(=O)(O)O)[C@@H](O)[C@H]2O)c(=O)[nH]1` [UTP], the Agonist activity result on P2Y1 [2] (cDNA library source: Rat ileal myocytes) is “ATP (UTP inactive)”; at P2Y1 [3] it was “inactive)”; on P2Y1 [4], “inactive)”; at P2Y11, “(UTP, UDP inactive)”. The “AVP-stimulated osmotic water permeability (Pf)” value on P2Y2 receptor [1] was “decreased”.
As to `COc1ccc2c(c1)c(CC(=O)O)c(C)n2C(=O)c1ccc(Cl)cc1` [indomethacin], the “polyuria of acquired NDI” value in experiment [5] is reported as “prevented the polyuria; also recorded: ameliorated”.
Regarding `Nc1ncnc2c1ncn2[C@@H]1O[C@H](COP(=O)(O)CP(=O)(O)OP(=O)(O)O)[C@@H](O)[C@H]1O` [α,β-meATP], the Agonist activity result on P2Y1 [2] (cDNA library source: Rat insulinoma cells) is “(α,β-meATP inactive)”.
On to apyrase, for which, in experiment [6] (setting [10]), the urine output entry was “did not change”. Also, the “urine flow induced by lithium” value in experiment [6] (lithium-fed rats, apyrase day 7 to 14, 100 units/kg intraperitoneally three times a day) was “prevented further increase in the urine flow”. The “P2Y2-mediated PGE2 release by IMCD” value in experiment [7] (setting [10]) is reported as “did not change”. Besides, the “P2Y2 receptor-stimulated PGE2 release by IMCD” value in [7] (lithium-fed rats, compared to apyrase-untreated lithium-fed rats) is recorded as “significantly decreased”.
For the compound dDAVP, the “purinergic-driven PGE2 production by IMCD” value in experiment [8] is reported as “significantly decreased”. Further, the “expression of V2 receptor mRNA” value in the experiment with V2 receptor is given as “did not change significantly”. Besides, in the experiment on P2Y2 receptor [9], the “mRNA expression of P2Y2 receptor, down-regulated to” value is recorded as 54% and the “protein abundance of P2Y2 receptor, down-regulated to” value was 49%.
